Data taken from US12338262B2 (Forward Therapeutics, Inc., priority 2022, dated 2025).
pIC50: −log10 of the molar value.

biological target: TNF-α (Homo sapiens, UniProt P01375); experiment: TNF-α Induced HEK Blue Cellular Assay; type: cell-based; settings: HEK Blue TNFα reporter cells, TNF-α 100 pg/ml, 24 hrs at 37° C., secreted alkaline phosphatase (QUANTI-Blue, 620 nm)
How it was run: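 HEK Blue TNFα reporter cells (10,000/well, DMEM + 10% FBS) treated with compound ([…] to 0.5 nM final) and stimulated with 100 pg/ml TNF-α for 24 h at 37 °C. Secreted alkaline phosphatase read with QUANTI-Blue at 620 nm; IC50 by 4-parameter logistic fit after background correction to stimulated/unstimulated DMSO controls.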

TNF-α, sequence (P01375 77-233 limits assumed): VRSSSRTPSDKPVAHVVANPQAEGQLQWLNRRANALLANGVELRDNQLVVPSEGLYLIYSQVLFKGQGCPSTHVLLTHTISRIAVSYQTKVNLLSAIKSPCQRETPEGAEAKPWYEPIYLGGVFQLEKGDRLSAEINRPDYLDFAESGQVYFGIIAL

SMILES | pIC50
Cc1nc2cc(F)c(-c3ccc(P(C)(C)=O)nc3)nc2c(N[C@H](c2cc(F)cc(F)c2)C2CC2)c1Cl [Example 139, 3-chloro-N—[(S)-cyclopropyl(3,5-difluorophenyl)methyl]-6-[6-(dimethylphosphoryl)pyridin-3-yl]-7-fluoro-2-methyl-1,5-naphthyridin-4-amine] | ≥ 6.00
Cc1nc2cc(F)c(-c3ccc(P(C)(C)=O)nc3)nc2c(N[C@H](c2ccccc2)C2CC2)c1Cl [Example 140, 3-chloro-N—[(S)-cyclopropyl(phenyl)methyl]-6-[6-(dimethylphosphoryl)pyridin-3-yl]-7-fluoro-2-methyl-1,5-naphthyridin-4-amine] | ≥ 6.00
Cc1nc2cc(F)c(-c3ccc(P4(=O)CCOCC4)nc3)nc2c(N[C@H](C)c2cc(C#N)ccc2F)c1Cl [Example 141, 3-[(1R)-1-({3-chloro-7-fluoro-2-methyl-6-[6-(4-oxo-1,4lambda5-oxaphosphinan-4-yl)pyridin-3-yl]-1,5-naphthyridin-4-yl}amino)ethyl]-4-fluorobenzonitrile] | 5.00 to 6.00
Cc1nc2cc(F)c(-c3ccc(P(C)(C)=O)nc3)nc2c(NC(c2cccc(F)c2F)C(C)(F)F)c1Cl (centres unmarked) [Example 142, 3-chloro-N-[1-(2,3-difluorophenyl)-2,2-difluoropropyl]-6-[6-(dimethylphosphoryl)pyridin-3-yl]-7-fluoro-2-methyl-1,5-naphthyridin-4-amine] | 5.00 to 6.00
Cc1nc2cc(F)c(-c3ccc(P4(=O)CCOCC4)nc3)nc2c(N[C@H](C)c2cccc(F)c2F)c1Cl [Example 143, 4-[5-(7-chloro-8-{[(1R)-1-(2,3-difluorophenyl)ethyl]amino}-3-fluoro-6-methyl-1,5-naphthyridin-2-yl)pyridin-2-yl]-1,4lambda5-oxaphosphinan-4-one] | 4.52 to 5.00
Cc1nc2cc(F)c(-c3ccc(P(C)(C)=O)nc3)nc2c(N[C@H](C)c2cccc(F)c2F)c1C#N [Example 144, 4-{[(1R)-1-(2,3-difluorophenyl)ethyl]amino}-6-[6-(dimethylphosphoryl)pyridin-3-yl]-7-fluoro-2-methyl-1,5-naphthyridine-3-carbonitrile] | 4.52 to 5.00
Cc1nc2cc(F)c(-c3ccc(P(C)(C)=O)nc3)nc2c(N[C@H](c2cccc(F)c2F)C(F)F)c1Cl [Example 146, (R)-(5-(7-chloro-8-((1-(2,3-difluorophenyl)-2,2-difluoroethyl)amino)-3-fluoro-6-methyl-1,5-naphthyridin-2-yl)pyridin-2-yl)dimethylphosphine oxide] | 5.00 to 6.00
CC[C@@H](Nc1c(Cl)c(C)nc2cc(F)c(-c3ccc(P(C)(C)=O)nc3)nc12)c1cc(F)cc(F)c1 [Example 147, 3-chloro-N-[(1R)-1-(3,5-difluorophenyl)propyl]-6-[6-(dimethylphosphoryl)pyridin-3-yl]-7-fluoro-2-methyl-1,5-naphthyridin-4-amine] | 5.00 to 6.00
CC[C@H](Nc1c(Cl)c(C)nc2cc(F)c(-c3ccc(P(C)(C)=O)nc3)nc12)c1cc(F)cc(F)c1 [Example 148, 3-chloro-N-[(1S)-1-(3,5-difluorophenyl)propyl]-6-[6-(dimethylphosphoryl)pyridin-3-yl]-7-fluoro-2-methyl-1,5-naphthyridin-4-amine] | 5.00 to 6.00
CCC(Nc1c(Cl)c(C)nc2cc(F)c(-c3ccc(P(C)(C)=O)nc3)nc12)c1ccn(C)n1 (centres unmarked) [Example 149, 3-chloro-6-[6-(dimethylphosphoryl)pyridin-3-yl]-7-fluoro-2-methyl-N-[1-(1-methylpyrazol-3-yl)propyl]-1,5-naphthyridin-4-amine] | 4.52 to 5.00
Cc1nc2cc(F)c(-c3ccc(P(C)(C)=O)nc3)nc2c(N[C@H](C)c2cc(C3CC3)ccc2F)c1Cl [Example 150, 3-chloro-N-[(1R)-1-(5-cyclopropyl-2-fluorophenyl)ethyl]-6-[6-(dimethylphosphoryl)pyridin-3-yl]-7-fluoro-2-methyl-1,5-naphthyridin-4-amine] | ≥ 6.00
